Assay results as given in patent publication US20140296137A1, “METHODS AND COMPOSITIONS FOR CONTROLLING ROTIFERS” (Los Alamos National Security, LLC, priority 2013, published 2014).
Ends that are not written are not given here.

What was measured:
[1] = system: Chlamydomonas reinhardtii; conditions: 5-6 days, room temperature, 96-well, algae colour under 20× microscope; ND = AMP killed all the algae
Procedure: (§1) This example provides the minimal inhibitory concentration (MIC) of antimicrobial peptides (AMPs) for algae. […] Therefore, the tolerance of algae to the AMPs listed in Table 2 of Example 1 was measured.
(§2) Briefly, the algae viability assay used herein measured the “health” of the algae cultures by looking at the color of the algae. […] A visual assay was used to determine the MIC for the individual AMPs on the algae. In each case, a light microscope with 20× magnification was used to observe algae color.
(§3) The effect of insecticidal and non-insecticidal AMPs on three different algae species was measured. The three algae species were Auxenochlorella protothecoides, Chlorella sorokiniana and Chlamydomonas reinhardtii.
(§4) Algae cultures were initiated in 96-well plates at an OD 750 of approximately 0.1. […] The antibiotics hygromycin and paromycin served as positive controls for inhibiting and/or reducing the growth rate of algae. […] The algae cultures were monitored by preparing microscopy slides with a small sample taken from the individual wells. The algae slides were then visualized under a 20× magnification microscope for algae viability as measured by algae color.

Chlorella protothecoides = conditions: 5-6 days, room temperature, 96-well, algae colour under 20× microscope; ND = AMP killed all the algae
Procedure: as §1, §2, §3, §4

Chlorella sorokiniana = conditions: 5-6 days, room temperature, 96-well, algae colour under 20× microscope; ND = AMP killed all the algae
Procedure: as §1, §2, §3, §4

Adineta vaga = type: in vivo; design: key to the marks not given beside the values; conditions: AMP 0.5 mg/mL, 24 hr time point, room temperature, visual motility score
Source text: (§5) Briefly, the rotifer motility assay used herein in the presence of a biocontrol agent (e.g., AMP) may be used as a measure of relative rotifer viability and competency. Rotifer diet, of which algae is considered to be an important food source, is one of the key environmental factors that impact the growth and multiplication of rotifers. In effect, the inability of a rotifer to be mobile (i.e., inability to swim toward a food source and/or to have mobile cilia that help trap food) prevents the rotifer from ingesting sufficient nutrients to further grow and reproduce. Thus, any approach that reduces and/or inhibits rotifer motility has a significant impact on an individual rotifer and therefore rotifer populations. With respect to algae cultures, reducing and/or inhibiting rotifer motility prevents and/or reduces any negative impact rotifers have on algae cultures (e.g., open pond systems for algae biomass and biofuel production). In other words, reducing and/or inhibiting rotifer motility reduces and/or prevents rotifers (e.g., infestations) from ingesting and consequently damaging algae cultures use in biofuel production.
(§6) The effect of the insecticidal and non-insecticidal AMPs of Table 2 (Example 1) on three different rotifer species was measured. The three rotifer species were Adineta vaga and Philodina acuticornis (class Bdelloid rotifers), and Brachionus (Monogononta class). A visual motility assay was used to determine the impact of the individual AMPs on rotifer viability. In each case, a light microscope with 20× magnification was used to observe rotifer motility (activity). […] FIGS. 1A, 1C and 1E show a 20× magnification of Adineta vaga, Philodina acuticornis and Brachionus (untreated), respectively. FIGS. 1B, 1D and 1F show a 20× magnification of Adineta vaga, Philodina acuticornis and Brachionus (AMP treated), respectively.
(§7) Rotifer cultures were initiated in 12-well or 24-well plates at a density of approximately 100-200 rotifers/mL. The 12-well plates contained a volume of 1 mL per well, and the 24-well plates contained a volume of about 0.25 mL to about 0.35 mL per well. Individual rotifer cultures (individual wells) were incubated with a select AMP at a concentration of 0.5 mg/mL (or a range of about 78 μM to about 365 μM) for 18, 21 and 24 hours at room temperature. The rotifer cultures were monitored by preparing microscopy slides with a small sample taken from the individual wells. The slides were then visualized under a 20× magnification microscope for rotifer motility. […] The scoring system was based on observing a subset of the rotifer population from each well. The impact on the subset of rotifers observed served as a representative of the impact on the entire rotifer population for that particular AMP treatment.
(§8) A summary of the motility assay (or “Kill Assay”) for each insecticidal and non-insecticidal AMP incubated with the three different rotifer species for the 24 hour time point is provided below in Table 5 (insecticidal AMPs) and Table 6 (non-insecticidal AMPs). The 18 and 21 hour time points gave similar results to the 24 hour time point.

Philodina acuticornis = type: in vivo; design: key to the marks not given beside the values; conditions: AMP 0.5 mg/mL, 24 hr time point, room temperature, visual motility score
Source text: as §5, §6, §7, §8

Brachionus = type: in vivo; conditions: AMP 0.5 mg/mL, 24 hr time point, room temperature, visual motility score
Source text: as §5, §6, §7, §8

three algae species = assay: Algae viability assay, summary statements over the three algae species; type: cell-based; conditions: comparison of Tables 3 and 4 with Tables 5 and 6
Procedure: as §1, §2, §3
Algae cultures were initiated in 96-well plates at an OD 750 of approximately 0.1. […] The antibiotics hygromycin and paromycin served as positive controls for inhibiting and/or reducing the growth rate of algae. Algae cultured in water or media served as a negative control (i.e., no effect on growth). The algae cultures were monitored by preparing microscopy slides with a small sample taken from the individual wells. The algae slides were then visualized under a 20× magnification microscope for algae viability as measured by algae color. […]

three rotifer species = assay: Rotifer visual motility assay, summary statements over the three rotifer species; type: in vivo, Adineta vaga, Philodina acuticornis and Brachionus; conditions: AMP 0.5 mg/mL
Source text: as §5, with “In other words, reducing and/or inhibiting rotifer motility reduces and/or prevents rotifers (e.g., infestations) from ingesting and consequently damaging algae cultures use in biofuel production.” left out
The effect of the insecticidal and non-insecticidal AMPs of Table 2 (Example 1) on three different rotifer species was measured. […]
Rotifer cultures were initiated in 12-well or 24-well plates at a density of approximately 100-200 rotifers/mL. […] The rotifer cultures were monitored by preparing microscopy slides with a small sample taken from the individual wells. […]

## FIGTALGIASAIPAIVKLFK [Ponericin W6]
[1]
  Minimal Inhibitory Concentration (MIC) Chlamydomonas reinhardtii: 61.6 µM
Chlorella protothecoides
  Minimal Inhibitory Concentration (MIC) Chlorella protothecoides: No Affect
Chlorella sorokiniana
  Minimal Inhibitory Concentration (MIC) Chlorella sorokiana: 492.5 µM
Adineta vaga
  “Kill” Efficiency Adineta vaga: ++
Philodina acuticornis
  “Kill” Efficiency Philodina: ++
Brachionus
  “Kill” Efficiency Brachionus: +++
Three algae species
  tolerance of algae to the AMP (in words): highly tolerated by algae
Three rotifer species
  negative impact on rotifer motility (in words): high negative impact

## FLPLIGKVLSGIL [Temporin F, Temporin-F]
[1]
  Minimal Inhibitory Concentration (MIC) Chlamydomonas reinhardtii: 91.3 µM
Chlorella protothecoides
  Minimal Inhibitory Concentration (MIC) Chlorella protothecoides: 365 µM
Chlorella sorokiniana
  Minimal Inhibitory Concentration (MIC) Chlorella sorokiana: 730.7 µM
Three algae species
  tolerance of algae to the AMP (in words): highly tolerated by algae
Three rotifer species
  negative impact on rotifer motility (in words): high negative impact
